Source: patent US8163778B2 (Hoffmann-LA Roche Inc., priority 2007, dated 2012)

The compounds below were run against T1, human liver FBPase (Homo sapiens, UniProt P09467) (assay: FBPase assay (malachite green phosphate release)). Conditions: recombinant human liver FBPase, 50 μM fructose-1,6-bisphosphate.
T1 construct: made in house; host or cells: E. coli
T1 sequence (P09467 2-338 limits assumed): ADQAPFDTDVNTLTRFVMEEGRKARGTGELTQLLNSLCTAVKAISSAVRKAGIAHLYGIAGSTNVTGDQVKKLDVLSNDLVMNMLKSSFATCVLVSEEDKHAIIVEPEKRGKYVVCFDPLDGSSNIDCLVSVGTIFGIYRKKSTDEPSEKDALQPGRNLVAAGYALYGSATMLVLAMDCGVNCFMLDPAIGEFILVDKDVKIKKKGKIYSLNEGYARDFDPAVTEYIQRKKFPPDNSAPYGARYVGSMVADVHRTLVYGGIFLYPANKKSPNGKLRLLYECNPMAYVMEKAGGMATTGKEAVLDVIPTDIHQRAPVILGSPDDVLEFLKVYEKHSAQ
Type: biochemical
Procedure, shortened: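 Recombinant human liver FBPase (E. coli-expressed, heat-treated, purified) reacted with 50 μM fructose-1,6-bisphosphate in pH 7.2 HEPES, 2 mM MgCl2, 1% DMSO, 50 min at room temperature. Released phosphate quantified with malachite green/ammonium molybdate reagent at 620 nm.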

In order of rising IC50:
1. CNC(=O)Nc1cc(OC)cc(NC(=O)NS(=O)(=O)c2cn(C)c3c(OC)cccc23)n1 [Compound 26, 7-Methoxy-N-({4-methoxy-6-[(methylcarbamoyl)amino]pyridin-2-yl}carbamoyl)-1-methyl-1H-indole-3-sulfonamide]  0.312 µM
2. COCCOc1ccc(S(=O)(=O)NC(=O)Nc2cc(Br)cc(N)n2)cc1C [Compound 57, N-[(6-Amino-4-bromopyridin-2-yl)carbamoyl]-4-(2-methoxyethoxy)-3-methylbenzenesulfonamide]  1.77 µM
3. COCCc1sc(S(=O)(=O)NC(=O)Nc2cc(C(F)(F)F)cc(C(=O)OC)n2)cc1C [Compound 91, Methyl-6-[({[5-(2-methoxyethyl)-4-methyl-2-thienyl]sulfonyl}carbamoyl)amino]-4-(trifluoromethyl)pyridine-2-carboxylate]  2.16 µM
4. COC(=O)c1cc(C(F)(F)F)cc(NC(=O)NS(=O)(=O)c2csc(C)c2)n1 [Compound 98, Methyl-6-({[(5-methyl-3-thienyl)sulfonyl]carbamoyl}amino)-4-(trifluoromethyl)pyridine-2-carboxylate]  2.29 µM
5. CNC(=O)Nc1cc(C(N)=NO)cc(NC(=O)NS(=O)(=O)c2cc(C)c(CCOC)s2)n1 [Compound 107, N′-Hydroxy-2-[({[5-(2-methoxyethyl)-4-methyl-2-thienyl]sulfonyl}carbamoyl)amino]-6-[(methylcarbamoyl)amino]pyridine-4-carboximidamide]  2.55 µM
